According to ChEMBL document CHEMBL1129861, “SAR for MHC class II binding tetrapeptides: Correlation with potential binding site” (Bioorg Med Chem Lett, 1997):
Residues, ends and D or L forms follow the SMILES beside them. *: point of attachment. Ethoxycarbonyl = CCOC(=O)*

Experiments:
HLA-DRB1*01:01 [1] = test: Inhibitory concentration required to inhibit the binding of biotinylated rat myelin basic protein peptide (RMBP90-102) against DR1 allele of class II for 5 hr
HLA-DRB1*01:01 [2] = test: Inhibitory concentration to inhibit the binding of biotinylated rat myelin basic protein peptide (RMBP90-102) against DR1 allele of class II MHC for 20 min
Rattus norvegicus [3] = organism: Rattus norvegicus; test: Inhibitory concentration of compound to inhibit the binding of biotinylated rat myelin basic protein peptide (RMBP90-102) against DR4 allele of class II for 20 min; type: functional
Rattus norvegicus [4] = organism: Rattus norvegicus; test: Inhibitory concentration of compound to inhibit the binding of biotinylated rat myelin basic protein peptide (RMBP90-102) against DR4 allele of class II for 5 hr; type: functional
Rattus norvegicus [5] = organism: Rattus norvegicus; test: Inhibitory concentration of compound to inhibit the binding of biotinylated rat myelin basic protein peptide (RMBP90-102) against DR1 allele of class II for 45 min; type: functional

Structure (SMILES) | IC50 (HLA-DRB1*01:01 [1]) | IC50 (HLA-DRB1*01:01 [2]) | IC50 (Rattus norvegicus [3]) | IC50 (Rattus norvegicus [4]) | IC50 (Rattus norvegicus [5])
CCOC(=O)N[C@H](Cc1ccc(OC)cc1)C(=O)N[C@H](C(=O)N[C@@H](C)C(=O)N[C@@H](CC(C)C)C(N)=O)C(C)C | 180 nM | 46 nM | – | – | –
CCOC(=O)N[C@H](CC(=O)c1ccccc1)C(=O)N[C@H](C(=O)N[C@@H](C)C(=O)N[C@@H](CC(C)C)C(N)=O)C(C)C | 45000 nM | 5700 nM | – | – | –
CCOC(=O)N[C@H](Cc1ccc(Cl)cc1)C(=O)N[C@H](C(=O)N[C@@H](C)C(=O)N[C@@H](CC(C)C)C(N)=O)C(C)C | 73 nM | 19 nM | – | – | –
CCOC(=O)N[C@H](Cc1ccc(OC(C)=O)cc1)C(=O)N[C@H](C(=O)N[C@@H](C)C(=O)N[C@@H](CC(C)C)C(N)=O)C(C)C | 1900 nM | 240 nM | – | – | –
CCOC(=O)N[C@H](CSCc1ccccc1)C(=O)N[C@H](C(=O)N[C@@H](C)C(=O)N[C@@H](CC(C)C)C(N)=O)C(C)C | 7000 nM | 270 nM | – | – | –
CCOC(=O)N[C@H](Cc1cccnc1)C(=O)N[C@H](C(=O)N[C@@H](C)C(=O)N[C@@H](CC(C)C)C(N)=O)C(C)C | 28000 nM | 5300 nM | – | – | –
CCOC(=O)N[C@@H](Cc1ccccc1)C(=O)N[C@H](C(=O)N[C@@H](C)C(=O)N[C@@H](CC(=O)O)C(N)=O)C(C)C (Ethoxycarbonyl-FVAD-NH2) | – | – | 1200 nM | 50000 nM | –
CCOC(=O)N[C@@H](Cc1ccccc1)C(=O)N[C@H](C(=O)N[C@@H](C)C(=O)N[C@@H](CC(C)C)C(N)=O)C(C)C (Ethoxycarbonyl-FVAL-NH2) | – | – | 8200 nM | – | –
CC(C)C[C@H](NC(=O)[C@H](C)NC(=O)[C@@H](NC(=O)[C@@H](N)Cc1ccccc1)C(C)C)C(N)=O (H-FVAL-NH2) | – | – | – | – | 1800 nM
